# Columns and labels:
# [1] = Pharmacokinetics of vaginal pullulan capsules with 12 mg CDB-4124 in women with uterine fibroids, compared with oral doses; format: in vivo, human
# Method: (§1) Capsugel NPcaps® were filled with the excipient fill formulations described above with 12 mg CDB-4124 (telapristone acetate) and administered vaginally to human females with uterine fibroids once per day for a period of 2 weeks to determine the length of time required to reach steady state and overall systemic exposure of the parent compound (CDB-4124) and the primary metabolite (CDB-4453). The capsules were administered using a commercially available vaginal applicator modified by reversing the insert (see FIG. 5). The unmodified applicator comprises a barrel and plunger with the barrel having a relatively wide opening on one end and a relatively narrow opening on the other end. The applicator is designed such that the drug is placed in the end with the larger diameter opening (entrance end), the applicator is inserted into the vagina and the plunger is used to push the drug out the barrel and into the vagina. For insertion of the filled NPcaps, the shell end of the capsule (having a […] diameter) was placed into the narrow opening in the barrel, leaving the cap exposed. […] Pharmacokinetic data was then obtained from patients.
# uterine fibroids = assay: Previous oral studies of CDB-4124 (menses, fibroid size, symptoms); format: in vivo, human
# Method: (§2) In a previous oral study, doses of 1, 3, 6, 9 and 12 mg of CDB-4124 were administered for a period of 10 weeks. […] Cessation of menses directly correlates to efficacy of an oral dose in both uterine fibroids and endometriosis. […] Given the overall low exposure of the 12 mg dose, in those women that continued to menstruate, further improvements in reduction of symptoms are expected with longer exposure to the drug. In efficacy studies in which CDB-4124 was administered orally, women experienced a nearly 50% reduction in mean fibroid size at a 25 mg dose. When those women were then escalated to a 50 mg oral dose for an additional four months, fibroid size was reduced to approximately 25% of the initial volume. […] It is expected that vaginal delivery of CDB-4124 at the 12 mg dose will have greater activity than the oral 50 mg dose despite a maximum exposure 1/100th of the 50 mg oral dose. Even with this low exposure after only 4 weeks of treatment, significant improvements in fibroid related condition have been observed.
# [2] = tested on: human females with uterine fibroids; assay: Efficacy of vaginal 12 mg CDB-4124 in women with uterine fibroids (menses, PBAC, UFSQOL); format: in vivo
# Method: as §1
# as §2, with “Even with this low exposure after only 4 weeks of treatment, significant improvements in fibroid related condition have been observed.” left out
# vaginal mucous membrane = assay: Cumulative vaginal mucous membrane irritancy in rabbits; format: in vivo, New Zealand White rabbits; details: rabbit
# Method: Pullulan capsules (Capsugel NPcaps®, size 0) comprising CDB-4124 were administered once daily for 10 consecutive days intravaginally to 10 healthy virgin female New Zealand White rabbits in order to determine the cumulative vaginal mucous membrane irritancy potential and to obtain plasma samples for pharmacokinetic analysis. Five rabbits were assigned to each of two groups, the first dosed with vehicle control (pullulan capsules with 0.5 ml PEG 1000 fill) introduced into the upper vaginal vault of each rabbit using a syringe applicator (Group 1), the second with CDB-4124 (pullulan capsules with 12 mg CDB-4124 in 0.5 ml PEG 1000) (Group 2). The external vaginal mucosa of each animal was examined for erythema, edema and discharge prior to the initial dose, immediately prior to each treatment and prior to sacrifice. All animals were examined for gross pathology.
# [3] = 12 mg vaginal, pair-wise comparison of 6 women
# [4] = 12 mg CDB-4124 vaginally daily for 10 days
smiles,measurement,setting,value
"COCC(=O)[C@@]1(OC(C)=O)CC[C@H]2[C@@H]3CCC4=CC(=O)CCC4=C3[C@@H](c3ccc(N(C)C)cc3)C[C@@]21C [CDB-4124, 21-methoxy-17α-acetoxy-11β-(4 N,N-dimethylaminophenyl)-19-norpregna-4,9-diene-3,20-dione]",maximum exposure relative to the 50 mg oral dose,[1]; 12 mg vaginal dose,1/100
same,Cmax compared with oral doses,"[1]; 12 mg vaginal versus 1, 3, 6, 9, 12 mg oral, FIG. 2",lower than any of the oral doses
same,time to steady state concentration,"[1]; women with uterine fibroids, 12 mg vaginal pullulan capsule once per day",within one week
same,systemic exposure (AUC) relative to an equivalent oral dose,"[1]; women with uterine fibroids, 12 mg vaginal versus oral, FIG. 1",about ⅙
same,fibroid size as % of the initial volume,uterine fibroids; escalated to 50 mg oral for an additional four months,approximately 25%
same,efficacy of 1 mg oral dose,uterine fibroids; oral 1 mg,ineffective
same,reduction in mean fibroid size,uterine fibroids; oral 25 mg dose,~50%
same,tolerability,"uterine fibroids; oral 1, 3, 6, 9 and 12 mg for 10 weeks",all doses were well tolerated
same,fibroid symptoms scored by UFSQOL,uterine fibroids; oral CDB-4124,"in general, symptom free"
same,lowest dose inducing reliable cessation of menses,"uterine fibroids; oral, 10 weeks",3 mg
same,cessation of menses (number of women),"[2]; 12 mg vaginal dose, 6 women compared",3
same,"statistical significance (p) of reduction in menstrual bleeding, Pictorial Blood Loss Assessment Chart (PBAC)",[2]; [3],< 0.05
same,"statistical significance (p) of reduction in overall uterine fibroid symptoms, UFSQOL",[2]; [3],< 0.05
same,"gross findings in ovaries, uterus, vagina",vaginal mucous membrane; [4],No gross findings
same,histopathological findings,vaginal mucous membrane; [4],nor were any histopathological findings observed
same,"external vaginal mucosa (erythema, edema)","vaginal mucous membrane; 12 mg CDB-4124 vaginally daily for 10 days, 2/5 rabbits on 4 occasions, otherwise normal",very slight erythema and/or edema
same,irritation index,"vaginal mucous membrane; pullulan capsules, 12 mg CDB-4124 in 0.5 ml PEG 1000, vaginally daily for 10 days",none

# From patent US10064815B2, “Formulations and methods for vaginal delivery of antiprogestins” (REPROS THERAPEUTICS INC., priority 2014, dated 2018)
